Laboratory results published in patent US10214512B2, “Factor XIA inhibitors” (MERCK SHARP & DOHME CORP., priority 2015, dated 2019).

Legend:
[1] = biological target: purified human Factor XIa (Homo sapiens (Human), UniProt P03951); experiment: Factor XIa Assay; assay type: biochemical; details: purified human Factor XIa 40 pM; substrate Z-Gly-Pro-Arg-AFC 100 μM; 50 mM HEPES pH 7.4; read-out: Human FXIa Ki
Summary of the method: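 Purified human FXIa at 40 pM final with fluorogenic Z-Gly-Pro-Arg-AFC at 100 μM, in 50 mM HEPES pH 7.4, 150 mM NaCl, 5 mM CaCl2, 0.1% PEG 8000, at rt or 37° C. Initial velocities measured after enzyme–inhibitor equilibration; Ki derived from Vo/Vi versus [I] assuming competitive inhibition.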

[2] = biological target: purified Human plasma Kallikrein (Homo sapiens (Human), UniProt P03952); experiment: Kallikrein Assay; assay type: biochemical; details: purified Human plasma Kallikrein 0.5 nM; substrate Acetyl-K-P-R-AFC; 50 mM HEPES pH 7.4; Ki from IC50 by Cheng Prusoff
Summary of the method: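 Purified human plasma kallikrein (0.5 nM) with fluorogenic Ac-K-P-R-AFC ([…]) in 50 mM HEPES pH 7.4, 150 mM NaCl, 5 mM CaCl2, 0.1% PEG 8000, at rt or 37 °C. Substrate hydrolysis rate read with and without inhibitor; IC50 from four-parameter logistic fit, converted to Ki by Cheng–Prusoff.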

purified human Factor XIa, sequence (P03951 388-625): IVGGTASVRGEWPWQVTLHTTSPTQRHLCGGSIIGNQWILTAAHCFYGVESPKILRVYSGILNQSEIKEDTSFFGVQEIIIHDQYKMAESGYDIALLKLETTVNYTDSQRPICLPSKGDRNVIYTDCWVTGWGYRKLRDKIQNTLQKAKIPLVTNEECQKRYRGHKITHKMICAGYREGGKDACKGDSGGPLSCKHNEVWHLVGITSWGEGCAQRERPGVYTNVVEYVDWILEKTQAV
purified human Factor XIa, sequence (P03951 19-387 partner): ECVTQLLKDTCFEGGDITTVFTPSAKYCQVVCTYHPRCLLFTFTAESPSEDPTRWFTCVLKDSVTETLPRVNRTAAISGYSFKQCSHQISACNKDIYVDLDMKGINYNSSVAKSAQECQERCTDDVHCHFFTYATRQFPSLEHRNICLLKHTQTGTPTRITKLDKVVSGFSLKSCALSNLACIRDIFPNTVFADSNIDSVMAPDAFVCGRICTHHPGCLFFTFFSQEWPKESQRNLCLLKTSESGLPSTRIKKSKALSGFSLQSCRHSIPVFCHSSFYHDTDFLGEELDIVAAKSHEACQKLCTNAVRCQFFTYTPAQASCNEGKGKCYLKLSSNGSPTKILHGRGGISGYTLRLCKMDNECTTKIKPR
purified Human plasma Kallikrein, sequence (P03952 391-638): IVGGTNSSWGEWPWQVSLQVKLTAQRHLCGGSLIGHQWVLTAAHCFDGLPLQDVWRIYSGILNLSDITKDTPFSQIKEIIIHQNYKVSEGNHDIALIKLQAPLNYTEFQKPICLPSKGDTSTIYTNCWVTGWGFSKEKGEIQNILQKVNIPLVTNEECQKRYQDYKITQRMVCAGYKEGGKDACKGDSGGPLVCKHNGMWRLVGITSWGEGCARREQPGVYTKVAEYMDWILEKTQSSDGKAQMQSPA
purified Human plasma Kallikrein, sequence (P03952 20-390 partner): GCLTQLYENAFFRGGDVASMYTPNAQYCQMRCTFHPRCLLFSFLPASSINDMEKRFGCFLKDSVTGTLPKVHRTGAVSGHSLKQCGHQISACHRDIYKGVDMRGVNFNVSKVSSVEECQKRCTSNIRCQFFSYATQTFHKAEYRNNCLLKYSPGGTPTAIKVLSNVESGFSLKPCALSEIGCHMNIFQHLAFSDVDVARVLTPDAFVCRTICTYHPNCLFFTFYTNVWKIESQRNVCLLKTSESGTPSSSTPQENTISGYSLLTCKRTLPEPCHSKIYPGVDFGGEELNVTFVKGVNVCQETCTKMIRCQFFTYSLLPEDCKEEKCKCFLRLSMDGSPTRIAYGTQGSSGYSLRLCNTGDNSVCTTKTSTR

SMILES	Ki [1]	Ki [2]
COC(=O)Nc1ccc2c(c1)NC(=O)C(C)CCCC(c1ccc(-c3c(F)ccc(Cl)c3F)c[n+]1[O-])c1ccc(F)c-2c1 (single isomer, unassigned) [Example 86-a, 5-(3-Chloro-2,6-difluorophenyl)-2-(1^6-fluoro-2^4-((methoxycarbonyl)amino)-5-methyl-4-oxo-3-aza-1(1,3),2(1,2) -dibenzenacyclononaphane-9-yl)pyridine 1-oxide]	6.34 nM	1.29 nM
COC(=O)Nc1ccc2c(c1)NC(=O)C(C)CCCC(c1ccc(-c3c(F)ccc(Cl)c3F)c[n+]1[O-])c1ccc(F)c-2c1 (single isomer, unassigned) [Example 86-d, 5-(3-Chloro-2,6-difluorophenyl)-2-(1^6-fluoro-2^4-((methoxycarbonyl)amino)-5-methyl-4-oxo-3-aza-1(1,3),2(1,2) -dibenzenacyclononaphane-9-yl)pyridine 1-oxide]	1.65 nM	5.36 nM
COC(=O)Nc1ccc2c(c1)NC(=O)CCCCC(c1cc(OC)c(-c3c(F)ccc(Cl)c3F)c[n+]1[O-])c1cccc-2c1 (single isomer, unassigned) [Example 87-a, 5-(3-Chloro-2,6-difluorophenyl)-4-methoxy-2-(2^4-((methoxycarbonyl)amino)-4-oxo-3-aza-1(1,3),2(1,2) -dibenzenacyclononaphane-9-yl)pyridine 1-oxide]	4.1 nM	12.7 nM
O=C1CCCCC(c2ccc(-c3cc(F)ccc3-n3cnnn3)c[n+]2[O-])c2cccc(c2)-c2cc(F)ccc2N1 (single isomer, unassigned) [Example 89-a, 5-(5-fluoro-2-(1H-tetrazol-1-yl)phenyl)-2-(2^5-fluoro-4-oxo-3-aza-1(1,3),2(1,2)-dibenzenacyclononaphane-9-yl)pyridine 1-oxide]	0.39 nM	13.6 nM
O=C1CCCCC(c2ccc(-c3cc(F)ccc3-n3cc(Cl)nn3)c[n+]2[O-])c2cccc(c2)-c2cc(F)ccc2N1 (single isomer, unassigned) [Example 90-a, 5-(2-(4-Chloro-1H-1,2,3-triazol-1-yl)-5-fluorophenyl)-2-(2^5-fluoro-4-oxo-3-aza-1(1,3),2(1,2)-dinenzenacyclononaphane-9-yl)pyridine 1-oxide]	3.2 nM	121 nM
COC(=O)Nc1ccc2c(c1)NC(=O)CCCCC(c1ccc(-c3c(F)ccc(Cl)c3F)c[n+]1[O-])c1nc-2c[nH]1 (single isomer, unassigned) [Example 96-a, (Z)-5-(3-chloro-2,6-difluorophenyl)-2-(2^4-((methoxycarbonyl)amino)-4-oxo-1^1H-3-aza-1(4,2)-imidazola-2(1,2)-benzenacyclononaphane-9-yl)pyridine 1-oxide]	0.53 nM	0.6 nM
COC(=O)Nc1ccc2c(c1)NC(=O)CCCCC(c1ccc(-c3cc(Cl)ccc3-n3cnnn3)c[n+]1[O-])c1nc-2c[nH]1 (single isomer, unassigned) [Example 98-a, (Z)-5-(5-chloro-2-(1H-tetrazol-1-yl)phenyl)-2-(2^4-((methoxycarbonyl)amino)-4-oxo-1^1H-3-aza-1(4,2)-imidazola-2(1,2) -benzenacyclononaphane-9-yl)pyridine 1-oxide]	0.51 nM	0.49 nM
COC(=O)Nc1ccc2c(c1)NC(=O)CCCCC(c1ccc(-c3cc(Cl)ccc3OC(F)(F)F)c[n+]1[O-])c1nc-2c[nH]1 (single isomer, unassigned) [Example 99-a, (Z)-5-(5-chloro-2-(trifluoromethoxy)phenyl)-2-(2^4-((methoxycarbonyl)amino)-4-oxo-1^1H-3-aza-1(4,2)-imidazola-2(1,2) -benzenacyclononaphane-9-yl)pyridine 1-oxide]	0.17 nM	1.21 nM
